Reference: patent US12220461B2, “Polypeptide-coupled small molecule compound and antiviral application thereof” (Guangzhou Medical University, priority 2023, dated 2025)
Starred links: 1 amine or outer side, 2 acyl side, 3 side chain; linkers in the order of their positions; H or OH if unused. Non-standard residues stand in square brackets, D forms with d. Residues, ends and D or L forms follow the SMILES beside them. ξ: configuration not given here. *: point of attachment. X1 = Cc1ccc(N[*:1])cc1C(=O)[*:2]; X2 = C[C@@H](N*)c1cccc2ccccc12; X3 = S=c1nc(N*)[nH]c2nc[nH]c12; ξR = N=C(N)NCCCC(N)C(=O)O; ξL = CC(C)CC(N)C(=O)O; ξS = NC(CO)C(=O)O

Columns and labels:
[1] = test system: A549 cells, MLE-12 cells and 293T cells
SARS-CoV-2 = type: cell-based
293T cells = conditions: same concentration, 24 h
Protocol: 9.1 Plating: 293T cells in logarithmic growth phase are inoculated into a 96-well plate (100 μL/well), triplicate wells are made in each group, and the number of cells in each well is set at 5×10^3. The cells are put in a 5% CO2 incubator at 37° C. for 12 h.
The dosage concentrations are set to 100 μM, 50 μM, 25 μM, 12.5 μM, 6.25 μM and 3.125 μM, and the dosage volume is 2 μL. The control group is added with 2 μL DMSO. Then, they are put in a 5% CO2 incubator at 37° C. for culture.
9.3 After 24 hours, the cells are washed with PBS twice, and then added 100 μL of pre-mixed CCK8 solution (medium: CCK8 working solution=9:1) to each well to avoid introduction of bubbles in the operation. Culture is continued for 2 h in a 5 6% CO2 incubator at 37° C.
9.4 The absorbance D(λ) of each well at the wavelength of 450 nm is determined by the microplate reader. D(λ) values of the negative control group, the control group and the experimental group are analyzed to determine the cell activity. Cell viability reflects the cytotoxicity of the drug. The groups are as follows: • the experimental group (medium containing cells, CCK-8, the drug to be tested); • the control group (medium containing cells, CCK-8, without drug to be tested); and • the negative control group (medium without cells and the substance to be detected, with CCK-8).

PLpro = molecular target: T1, PLpro (Severe acute respiratory syndrome coronavirus 2, UniProt P0DTD1); assay: cell-based; parameters: species or system SARS-CoV-2
T1 construct: expressed in transfected cells; host or cells: 293T cells

## Cc1ccc(N)cc1C(=O)N[C@H](C)c1cccc2ccccc12 [GRL0617, reference compound]
[1]
  cytotoxicity (CCK8 cell viability): great cytotoxicity

## CC(C)CC(NC(=O)C(CCCNC(=N)N)NC(=O)C(N)CO)C(=O)NC(CCCNC(=N)N)C(=O)NCC(=O)NCC(=O)Nc1nc(=S)c2[nH]cnc2[nH]1 (centres unmarked) [RG-6] (H-SRLRGG-X3; configuration not given here)
SARS-CoV-2
  IC50 for inhibition of CPE induced by SARS-CoV-2: lower than 6-TG
293T cells
  cytotoxicity (CCK8 cell viability): less cytotoxicity than 6-TG

## Cc1ccc(NC(=O)CNC(=O)CNC(=O)C(CCCNC(=N)N)NC(=O)C(CC(C)C)NC(=O)C(CCCNC(=N)N)NC(=O)C(N)CO)cc1C(=O)N[C@H](C)c1cccc2ccccc12 (some centres unmarked) [RG-17] (H-[ξS][ξR][ξL][ξR]GG[X1]-X2)
PLpro
  IC50: 13.7 µM
[1]
  cytotoxicity (CCK8 cell viability): does not affect the cell growth
